Measured values taken from the supplement of paper PMC6045584.
± gives the standard deviation of the averaged measurements.

Legend:
[1] = compound: C[C@@H](Oc1cc(-c2cnn(C3CCNCC3)c2)cnc1N)c1c(Cl)ccc(F)c1Cl; assay: surviving fraction relative to DMSO-only wells; higher = less growth inhibition; details: exposure time: 5 days
Procedure, shortened: (§1)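 Log-phase tumour cell lines, 250–500 cells per well in 384-well plates, received inhibitors at 0.5, 1, 5, 10, 50, 100, 500 and 1000 nM continuously for five days, starting 24 hours after seeding. Viability was quantified with CellTiter-Glo luminescence and normalised to the median of DMSO-only wells to give surviving fraction. Three screens were run per line, and a line stayed in only with replicate Pearson r >0.7 and median Z' >0.3.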

MLN-4924 = compound: NS(=O)(=O)OC[C@@H]1C[C@@H](n2ccc3c(N[C@H]4CCc5ccccc54)ncnc32)C[C@@H]1O [MLN-4924]; assay: as above; details: exposure time: 5 days
Procedure, shortened: as §1

Test System	surviving fraction ([1]; 0.5 nM)	surviving fraction ([1]; 1 nM)	surviving fraction ([1]; 5 nM)	surviving fraction ([1]; 10 nM)	surviving fraction ([1]; 50 nM)	surviving fraction ([1]; 100 nM)	surviving fraction ([1]; 500 nM)	surviving fraction ([1]; 1000 nM)	surviving fraction (MLN-4924; 0.5 nM)	surviving fraction (MLN-4924; 1 nM)	surviving fraction (MLN-4924; 5 nM)	surviving fraction (MLN-4924; 10 nM)	surviving fraction (MLN-4924; 50 nM)	surviving fraction (MLN-4924; 100 nM)	surviving fraction (MLN-4924; 500 nM)	surviving fraction (MLN-4924; 1000 nM)
YAMATO SYNOVIAL	0.796 ± 0.0095	0.763 ± 0.069	0.79 ± 0.015	0.724 ± 0.12	0.425 ± 0.015	0.309 ± 0.014	0.279 ± 0.014	0.333 ± 0.024	1.33 ± 0.091	1.25 ± 0.019	1.33 ± 0.085	1.31 ± 0.21	1.21 ± 0.11	0.805 ± 0.058	0.637 ± 0.041	0.492 ± 0.045
ZR751 BREAST	0.874 ± 0.087	0.924 ± 0.052	0.873 ± 0.082	0.797 ± 0.046	0.82 ± 0.14	0.967 ± 0.052	0.727 ± 0.074	0.699 ± 0.077	1.23 ± 0.056	1.08 ± 0.17	1.13 ± 0.13	1.24 ± 0.036	1.06 ± 0.13	1.03 ± 0.092	0.784 ± 0.11	0.669 ± 0.063
